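The compound was tested at five concentrations on cells cultured in 96-well plates, with a 48-hour exposure period. The concentration for 50% growth inhibition is given as GI50.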 The source made the active and inactive calls. Rule as the data show it: active = GI50 up to about 1.1 µM and inactive = higher.
Key:
Assay in all cases: NCI anticancer screen, dose series, 48 h
[1] = tested on: 786-0
[2] = tested on: LOX IMVI
[3] = tested on: MCF7
[4] = tested on: UACC-257
[5] = tested on: CCRF-CEM
[6] = tested on: HL-60
[7] = tested on: NCI-H522
[8] = tested on: SNB-75
[9] = tested on: UO-31
[10] = tested on: HCT-116
[11] = tested on: TK-10
[12] = tested on: HCC 2998
[13] = tested on: NCI-H23
[14] = tested on: OVCAR-3
[15] = tested on: K562
[16] = tested on: NCI/ADR-RES
[17] = tested on: RPMI-8226
[18] = tested on: UACC-62
[19] = tested on: ACHN
[20] = tested on: OVCAR-8
[21] = tested on: U-251
[22] = tested on: MOLT-4
[23] = tested on: SK-OV-3
[24] = tested on: A549
[25] = tested on: SK-MEL-5
[26] = tested on: HOP-62
[27] = tested on: SN12C
[28] = tested on: MDA-MB-435
[29] = tested on: SF-295
[30] = tested on: Malme-3M
[31] = tested on: NCI-H226
[32] = tested on: SK-MEL-2
[33] = tested on: CAKI-1
[34] = tested on: MDA-MB-231
[35] = tested on: EKVX
[36] = tested on: PC-3
[37] = tested on: DU-145
[38] = tested on: M14
[39] = tested on: RXF 393
[40] = tested on: T47D
[41] = tested on: SW-620
[42] = tested on: COLO 205
[43] = tested on: A498
[44] = tested on: HOP-92
[45] = tested on: SK-MEL-28
[46] = tested on: KM12
[47] = tested on: HCT-15
[48] = tested on: HT-29
[49] = tested on: IGROV-1
[50] = tested on: OVCAR-4
[51] = tested on: MDA-N
[52] = tested on: SF-539
[53] = tested on: SNB-19
[54] = tested on: OVCAR-5
[55] = tested on: SF-268
[56] = tested on: Hs-578T
[57] = tested on: NCI-H460
[58] = tested on: SR

Q: Which GI50 [1] does the source give for Nc1ccccc1C(=O)NNC(=O)c1ccccc1N here?
A: > 100 µM (inactive)

Q: What about the GI50 [2] of the same compound?
A: > 100 µM (inactive)

Q: And the GI50 [3]?
A: > 100 µM (inactive)

Q: And the GI50 [4]?
A: > 100 µM (inactive)

Q: What about the GI50 [5] of the same compound?
A: > 100 µM (inactive)

Q: And the GI50 [6]?
A: > 100 µM (inactive)

Q: What about the GI50 [7] of the same compound?
A: > 100 µM (inactive)

Q: What about the GI50 [8] of the same compound?
A: 35.5 µM (inactive)

Q: And the GI50 [9]?
A: > 100 µM (inactive)

Q: What about the GI50 [10] of the same compound?
A: > 100 µM (inactive)

Q: And the GI50 [11]?
A: > 100 µM (inactive)

Q: And the GI50 [12]?
A: > 100 µM (inactive)

Q: What about the GI50 [13] of the same compound?
A: > 100 µM (inactive)

Q: And the GI50 [14]?
A: > 100 µM (inactive)

Q: And the GI50 [15]?
A: > 100 µM (inactive)

Q: And the GI50 [16]?
A: > 100 µM (inactive)

Q: And the GI50 [17]?
A: > 100 µM (inactive)

Q: And the GI50 [18]?
A: > 100 µM (inactive)

Q: And the GI50 [19]?
A: > 100 µM (inactive)

Q: And the GI50 [20]?
A: > 100 µM (inactive)

Q: What about the GI50 [21] of the same compound?
A: > 100 µM (inactive)

Q: And the GI50 [22]?
A: > 100 µM (inactive)

Q: And the GI50 [23]?
A: > 100 µM (inactive)

Q: What about the GI50 [24] of the same compound?
A: > 100 µM (inactive)

Q: What about the GI50 [25] of the same compound?
A: > 100 µM (inactive)

Q: What about the GI50 [26] of the same compound?
A: > 100 µM (inactive)

Q: What about the GI50 [27] of the same compound?
A: > 100 µM (inactive)

Q: And the GI50 [28]?
A: > 100 µM (inactive)

Q: And the GI50 [29]?
A: > 100 µM (inactive)

Q: What about the GI50 [30] of the same compound?
A: > 100 µM (inactive)

Q: What about the GI50 [31] of the same compound?
A: > 100 µM (inactive)

Q: What about the GI50 [32] of the same compound?
A: > 100 µM (inactive)

Q: What about the GI50 [33] of the same compound?
A: > 100 µM (inactive)

Q: And the GI50 [34]?
A: > 100 µM (inactive)

Q: What about the GI50 [35] of the same compound?
A: > 100 µM (inactive)

Q: And the GI50 [36]?
A: > 100 µM (inactive)

Q: And the GI50 [37]?
A: > 100 µM (inactive)

Q: And the GI50 [38]?
A: > 100 µM (inactive)

Q: And the GI50 [39]?
A: > 100 µM (inactive)

Q: And the GI50 [40]?
A: > 100 µM (inactive)

Q: What about the GI50 [41] of the same compound?
A: > 100 µM (inactive)

Q: What about the GI50 [42] of the same compound?
A: > 100 µM (inactive)

Q: And the GI50 [43]?
A: > 100 µM (inactive)

Q: What about the GI50 [44] of the same compound?
A: > 100 µM (inactive)

Q: What about the GI50 [45] of the same compound?
A: > 100 µM (inactive)

Q: And the GI50 [46]?
A: > 100 µM (inactive)

Q: And the GI50 [47]?
A: > 100 µM

Q: And the GI50 [48]?
A: > 100 µM (inactive)

Q: And the GI50 [49]?
A: > 100 µM (inactive)

Q: And the GI50 [50]?
A: > 100 µM (inactive)

Q: What about the GI50 [51] of the same compound?
A: > 100 µM (inactive)

Q: What about the GI50 [52] of the same compound?
A: > 100 µM (inactive)

Q: And the GI50 [53]?
A: > 100 µM (inactive)

Q: And the GI50 [54]?
A: > 100 µM (inactive)

Q: CCC1=NC(C(F)(F)F)(C(F)(F)F)N=C(N2CCOCC2)O1 was tested. Which GI50 [2] did it give?
A: > 100 µM (inactive)

Q: And the GI50 [3]?
A: > 100 µM (inactive)

Q: What about the GI50 [4] of the same compound?
A: > 100 µM (inactive)

Q: What about the GI50 [5] of the same compound?
A: > 100 µM (inactive)

Q: What about the GI50 [6] of the same compound?
A: > 100 µM (inactive)

Q: What about the GI50 [7] of the same compound?
A: > 100 µM (inactive)

Q: What about the GI50 [8] of the same compound?
A: > 100 µM (inactive)

Q: And the GI50 [9]?
A: > 100 µM (inactive)

Q: What about the GI50 [55] of the same compound?
A: > 100 µM (inactive)

Q: What about the GI50 [10] of the same compound?
A: > 100 µM (inactive)

Q: What about the GI50 [11] of the same compound?
A: > 100 µM (inactive)

Q: What about the GI50 [12] of the same compound?
A: > 100 µM (inactive)

Q: And the GI50 [13]?
A: > 100 µM (inactive)

Q: And the GI50 [14]?
A: > 100 µM (inactive)

Q: And the GI50 [15]?
A: > 100 µM (inactive)

Q: And the GI50 [16]?
A: > 100 µM (inactive)

Q: What about the GI50 [17] of the same compound?
A: > 100 µM (inactive)

Q: What about the GI50 [18] of the same compound?
A: > 100 µM (inactive)

Q: What about the GI50 [19] of the same compound?
A: > 100 µM (inactive)

Q: What about the GI50 [20] of the same compound?
A: > 100 µM (inactive)

Q: And the GI50 [21]?
A: > 100 µM (inactive)

Q: And the GI50 [22]?
A: > 100 µM (inactive)

Q: What about the GI50 [56] of the same compound?
A: > 100 µM (inactive)

Q: And the GI50 [23]?
A: > 100 µM (inactive)

Q: And the GI50 [24]?
A: > 100 µM (inactive)

Q: And the GI50 [25]?
A: > 100 µM (inactive)

Q: What about the GI50 [57] of the same compound?
A: > 100 µM (inactive)

Q: And the GI50 [27]?
A: > 100 µM (inactive)

Q: What about the GI50 [28] of the same compound?
A: > 100 µM (inactive)

Q: And the GI50 [29]?
A: > 100 µM (inactive)

Q: And the GI50 [32]?
A: > 100 µM (inactive)

Q: What about the GI50 [33] of the same compound?
A: 34.5 µM (inactive)

Q: And the GI50 [34]?
A: > 100 µM (inactive)

Q: And the GI50 [35]?
A: > 100 µM (inactive)

Q: And the GI50 [36]?
A: > 100 µM (inactive)

Q: And the GI50 [37]?
A: > 100 µM (inactive)

Q: And the GI50 [38]?
A: > 100 µM (inactive)

Q: And the GI50 [58]?
A: > 100 µM (inactive)

Q: What about the GI50 [39] of the same compound?
A: > 100 µM (inactive)

Q: And the GI50 [40]?
A: > 100 µM (inactive)

Q: What about the GI50 [41] of the same compound?
A: > 100 µM (inactive)

Q: And the GI50 [42]?
A: > 100 µM (inactive)

Q: What about the GI50 [44] of the same compound?
A: > 100 µM (inactive)

Q: What about the GI50 [45] of the same compound?
A: > 100 µM (inactive)

Q: What about the GI50 [46] of the same compound?
A: > 100 µM (inactive)

Q: And the GI50 [47]?
A: > 100 µM

Q: What about the GI50 [48] of the same compound?
A: > 100 µM (inactive)

Q: What about the GI50 [49] of the same compound?
A: > 100 µM (inactive)

Q: And the GI50 [50]?
A: > 100 µM (inactive)

Q: What about the GI50 [51] of the same compound?
A: > 100 µM (inactive)

Q: What about the GI50 [52] of the same compound?
A: > 100 µM (inactive)

Q: What about the GI50 [53] of the same compound?
A: > 100 µM (inactive)

Q: What about the GI50 [54] of the same compound?
A: > 100 µM (inactive)
